In this assay the test system is mice. Briefly: Spontaneous tumors in mice at autopsy. Conditions: for spontaneous tumors, Number, in %: mice, untreated control = 100. The format is in vivo. The method, then:
The maximum life span (MLS) of mice according to our long-term statistical observations is 2.7-3, 2 years, i.e. in average 2.95 years or 1077 days. For this study we selected mice (10 individuals per group), males with dominant behavior in mixed groups, that safely survived to 985 days without signs of pronounced senility and with satisfactory orientation-exploratory behavior, determined by the “open field test” method. Phenotropil in doses of 25, 50 and 100 mg/kg was administered orally with 5.0% glucose solution. Glucose solution was used solely to improve the solubility of the drug. One control group received the glucose solution and the second one—distilled water. The third control group was not treated.
The greatest effect (Table 18) was obtained after treatment with Phenotropil in doses of 25 mg/kg (23.3%) and 100 mg/kg (24.0%). […] With a sample of 30 individuals in total in the three groups, we can talk about a high reliability of the findings.

Marks after values point to notes of the source that are not given here.

Regarding `NC(=O)CN1CC(c2ccccc2)CC1=O` (racemic) [Compound 1, (RS)-2-(2-oxo-4-phenylpyrrolidine-1-yl)acetamide], where the note is “100 mg/kg”, the “incidence and severity of spontaneous tumors lower by” value was 2.37 times. Further, the “spontaneous tumors, Number, in %” value is given as 57.0* % (25 mg/kg + 5.0% glucose solution), 74.5* % (50 mg/kg + 5.0% glucose solution) and 42.2* % (100 mg + 5.0% glucose solution).

These data come from US20140315972A1, “RS)-2-(2-oxo-4-phenylpyrrolidin-1-yl)acetamide compound having modulatory activity with a commensurate effect, pharmaceutical substance (variants) and its application, composition (variants) thereof” (priority 2011, published 2014).
